{"source": "patent US9862684B2", "about": "“Modulation of K2P channels” (The Regents of the University of California, priority 2013, dated 2018)", "target": "T1, K2P5.1 (TASK-2) (Mus musculus, UniProt F6V9U5)", "T1 construct": "expressed in transfected cells; host or cells: Xenopus oocytes", "T1 sequence (F6V9U5 1-502)": "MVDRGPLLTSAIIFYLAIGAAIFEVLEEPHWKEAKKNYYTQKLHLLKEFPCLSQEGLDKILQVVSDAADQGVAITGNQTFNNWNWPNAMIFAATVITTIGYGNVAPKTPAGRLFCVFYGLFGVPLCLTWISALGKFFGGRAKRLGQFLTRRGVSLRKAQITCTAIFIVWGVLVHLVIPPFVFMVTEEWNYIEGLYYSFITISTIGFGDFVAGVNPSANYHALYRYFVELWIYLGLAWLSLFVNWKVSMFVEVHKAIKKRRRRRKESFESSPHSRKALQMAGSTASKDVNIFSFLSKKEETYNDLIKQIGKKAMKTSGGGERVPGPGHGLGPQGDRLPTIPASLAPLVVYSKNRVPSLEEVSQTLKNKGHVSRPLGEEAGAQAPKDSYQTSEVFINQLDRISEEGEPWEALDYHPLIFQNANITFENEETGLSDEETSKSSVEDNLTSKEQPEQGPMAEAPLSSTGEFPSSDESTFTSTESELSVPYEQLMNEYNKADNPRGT", "test": "Two-electrode voltage clamp, Xenopus oocytes expressing K2P5.1 (TASK-2)", "type": "cell-based, Murine", "method": "FIG. 7 ML67-33 is a selective activator of heat- and mechanosensitive K2P channels. a-f, Exemplar I-V curves showing the effect of ML67-33 on a, K2P10.1 (TREK-2), b, K2P4.1 (TRAAK), c, K2P3.1 (TASK-1), d, K2P9.1 (TASK-3), e, K2P5.1 (TASK-2), and f, K2P18.1 (TRESK) measured in Xenopus oocytes in 2 mM [K^+]o pH 7.4. Currents were elicited by a voltage ramp from −150 to 50 mV, from a holding potential of −80 mV. g, Quantification of the effect of ML67-33 on the indicated channels. Data (mean±s.e., n≧6, N≧2) was normalized to basal channel activity and fitted to the Hill equation. […] Error bars indicate s.e., n≧6, N≧2.\nMurine K2P channels were cloned into pGEMHE/pMO {Bagriantsev, 2011}, IRES-GFP (Invitrogen), or pYES2-MET25 (high copy 2μ, URA3) {Minor, 1999} for expression in oocytes, HEK-293T cells, and yeast, respectively, using standard molecular biology procedures, and verified by DNA sequencing.\nTwo-electrode voltage clamp recordings were performed from defolliculated stage V-VI Xenopus oocytes 24-48 hours after injection with 0.015-6.0 ng cRNA, using microelectrodes (0.3-3.0 MΩ) filled with 3M KCl. Data was acquired using the GeneClamp 500B (MDS Analytical Technologies) amplifier controlled by the pClamp software (Molecular Devices), and digitized at 1 kHz using Digidata 1332A (MDS Analytical Technologies). […]"}
{"smiles": "CC1(C)c2cc(Cl)ccc2N(CCc2nnn[nH]2)c2ccc(Cl)cc21", "note": "[ML67-33, 2,7-dichloro-9,9-dimethyl-10-[2-(1H-tetrazol-5-yl)ethyl]acridine]", "values": [{"measurement": "functional effect (in words)", "setting": "applied at 100 μM", "value": "little or no functional effects"}, {"measurement": "Emax (fold)", "setting": "at 100 μM (FIG. 7 legend), ** in Table 1", "value": "1.7±0.3", "unit": "fold"}]}
